In ChEMBL document CHEMBL2074500 (Drug Metab Dispos, 1999):

How the values were obtained:
[1] = molecular target: T1, Solute carrier organic anion transporter family member 1A2 (Homo sapiens, UniProt P46721); test: TP_TRANSPORTER: inhibition of Fexofenadine uptake (Fexofenadine: 2 uM, Saquinavir: 100 uM) in Xenopus laevis oocytes; format: functional, cell-based; design: scale not given: the % may be the effect or the level left; details: oocyte
T1 sequence (P46721 whole entry): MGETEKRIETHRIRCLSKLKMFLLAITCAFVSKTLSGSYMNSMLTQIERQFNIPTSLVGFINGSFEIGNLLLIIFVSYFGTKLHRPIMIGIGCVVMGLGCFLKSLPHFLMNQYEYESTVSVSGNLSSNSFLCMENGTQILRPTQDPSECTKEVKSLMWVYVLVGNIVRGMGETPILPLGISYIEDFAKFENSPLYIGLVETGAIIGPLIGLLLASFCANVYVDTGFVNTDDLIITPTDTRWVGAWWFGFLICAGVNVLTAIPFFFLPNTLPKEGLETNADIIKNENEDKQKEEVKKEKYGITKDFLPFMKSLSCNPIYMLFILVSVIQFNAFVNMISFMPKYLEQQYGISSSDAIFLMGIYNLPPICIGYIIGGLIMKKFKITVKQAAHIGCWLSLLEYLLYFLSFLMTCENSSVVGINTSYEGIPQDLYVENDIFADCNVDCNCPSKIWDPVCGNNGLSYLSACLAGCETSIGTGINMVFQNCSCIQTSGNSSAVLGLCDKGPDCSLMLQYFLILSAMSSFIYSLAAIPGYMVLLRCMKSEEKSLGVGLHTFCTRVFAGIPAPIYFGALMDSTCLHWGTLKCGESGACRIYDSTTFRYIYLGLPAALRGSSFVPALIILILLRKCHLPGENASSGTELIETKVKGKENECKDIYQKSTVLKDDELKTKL

[2] = molecular target: T1, Solute carrier organic anion transporter family member 1A2; test: TP_TRANSPORTER: inhibition of Fexofenadine uptake (Fexofenadine: 2 uM, Indinavir: 100 uM) in Xenopus laevis oocytes; format: functional, cell-based; design: scale not given: the % may be the effect or the level left; details: oocyte
[3] = molecular target: T1, Solute carrier organic anion transporter family member 1A2; test: TP_TRANSPORTER: inhibition of Fexofenadine uptake (Fexofenadine: 2 uM, Nelfinavir: 100 uM) in Xenopus laevis oocytes; format: functional, cell-based; design: scale not given: the % may be the effect or the level left; details: oocyte
[4] = molecular target: T1, Solute carrier organic anion transporter family member 1A2; test: TP_TRANSPORTER: inhibition of Fexofenadine uptake (Fexofenadine: 2 uM, Verapamil: 100 uM) in Xenopus laevis oocytes; format: functional, cell-based, Oocyte; details: probe Fexofenadine
[5] = molecular target: T1, Solute carrier organic anion transporter family member 1A2; test: TP_TRANSPORTER: inhibition of Fexofenadine uptake (Fexofenadine: 2 uM, Erythromycin: 100 uM) in Xenopus laevis oocytes; format: functional, cell-based; design: scale not given: the % may be the effect or the level left; details: oocyte
[6] = molecular target: T2, ATP-dependent translocase ABCB1 (Mus musculus, UniProt P21447); test: TP_TRANSPORTER: increase in spleen concentration in mdr1a(-/-) mouse; format: functional, organism-based; details: in vivo
T2 sequence (P21447 whole entry): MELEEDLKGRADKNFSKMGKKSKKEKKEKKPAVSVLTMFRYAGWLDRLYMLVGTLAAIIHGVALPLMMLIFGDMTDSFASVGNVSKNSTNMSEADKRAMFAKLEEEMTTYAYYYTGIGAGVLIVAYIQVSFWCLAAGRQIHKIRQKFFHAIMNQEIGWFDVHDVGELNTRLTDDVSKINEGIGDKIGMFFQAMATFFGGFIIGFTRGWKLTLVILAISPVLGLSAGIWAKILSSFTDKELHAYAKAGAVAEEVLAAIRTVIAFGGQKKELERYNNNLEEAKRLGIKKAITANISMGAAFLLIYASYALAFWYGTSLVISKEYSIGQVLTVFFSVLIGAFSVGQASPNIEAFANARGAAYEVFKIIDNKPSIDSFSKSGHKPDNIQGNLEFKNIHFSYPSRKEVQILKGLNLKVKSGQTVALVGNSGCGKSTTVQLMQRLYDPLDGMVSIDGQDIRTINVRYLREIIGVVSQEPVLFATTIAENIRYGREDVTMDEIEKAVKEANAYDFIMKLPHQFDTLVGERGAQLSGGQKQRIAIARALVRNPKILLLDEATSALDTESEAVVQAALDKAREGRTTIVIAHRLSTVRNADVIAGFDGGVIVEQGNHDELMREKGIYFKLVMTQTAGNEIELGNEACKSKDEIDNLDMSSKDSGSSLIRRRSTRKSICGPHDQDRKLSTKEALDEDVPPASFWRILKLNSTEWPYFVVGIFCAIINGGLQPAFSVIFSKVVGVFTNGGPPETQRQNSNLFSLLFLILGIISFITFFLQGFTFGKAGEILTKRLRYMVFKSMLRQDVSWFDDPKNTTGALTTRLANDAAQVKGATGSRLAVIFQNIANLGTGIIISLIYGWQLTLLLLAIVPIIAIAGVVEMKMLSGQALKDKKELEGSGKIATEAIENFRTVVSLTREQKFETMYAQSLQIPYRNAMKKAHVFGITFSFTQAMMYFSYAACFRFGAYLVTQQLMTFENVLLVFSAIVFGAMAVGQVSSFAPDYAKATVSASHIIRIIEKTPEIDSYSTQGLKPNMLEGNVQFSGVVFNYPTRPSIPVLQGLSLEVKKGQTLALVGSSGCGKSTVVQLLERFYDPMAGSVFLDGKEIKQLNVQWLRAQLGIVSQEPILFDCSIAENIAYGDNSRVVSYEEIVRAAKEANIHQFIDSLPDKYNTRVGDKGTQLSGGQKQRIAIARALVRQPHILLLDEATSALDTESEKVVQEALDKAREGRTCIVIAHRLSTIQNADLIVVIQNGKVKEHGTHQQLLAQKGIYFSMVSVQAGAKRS

[7] = molecular target: T2, ATP-dependent translocase ABCB1; test: TP_TRANSPORTER: increase in small intestine concentration in mdr1a(-/-) mouse; format: functional, organism-based; details: in vivo
[8] = molecular target: T2, ATP-dependent translocase ABCB1; test: TP_TRANSPORTER: increase in plasma concentration in mdr1a(-/-) mouse; format: functional, organism-based; details: in vivo
[9] = molecular target: T2, ATP-dependent translocase ABCB1; test: TP_TRANSPORTER: increase in liver concentration in mdr1a(-/-) mouse; format: functional, organism-based; details: in vivo
[10] = molecular target: T2, ATP-dependent translocase ABCB1; test: TP_TRANSPORTER: increase in kidney concentration in mdr1a(-/-) mouse; format: functional, organism-based; details: in vivo
[11] = molecular target: T2, ATP-dependent translocase ABCB1; test: TP_TRANSPORTER: increase in heart concentration in mdr1a(-/-) mouse; format: functional, organism-based; details: in vivo
[12] = molecular target: T1, Solute carrier organic anion transporter family member 1A2; test: TP_TRANSPORTER: inhibition of Fexofenadine uptake (Fexofenadine: 2 uM, Ketoconazole: 100 uM) in Xenopus laevis oocytes; format: functional, cell-based; design: scale not given: the % may be the effect or the level left; details: oocyte
[13] = molecular target: T1, Solute carrier organic anion transporter family member 1A2; test: TP_TRANSPORTER: inhibition of Fexofenadine uptake (Fexofenadine: 2 uM, Lovastatin: 100 uM) in Xenopus laevis oocytes; format: functional, cell-based, Oocyte; details: probe Fexofenadine
[14] = molecular target: T1, Solute carrier organic anion transporter family member 1A2; test: TP_TRANSPORTER: inhibition of Fexofenadine uptake (Fexofenadine: 2 uM, Quinidine: 100 uM) in Xenopus laevis oocytes; format: functional, cell-based, Oocyte; details: probe Fexofenadine, read-out: Activity
[15] = molecular target: T1, Solute carrier organic anion transporter family member 1A2; test: TP_TRANSPORTER: inhibition of Fexofenadine uptake (Fexofenadine: 2 uM, PSC-833: 100 uM) in Xenopus laevis oocytes; format: functional, cell-based, Oocyte; details: probe Fexofenadine
[16] = substrate: CC(C)(C(=O)O)c1ccc(C(O)CCCN2CCC(C(O)(c3ccccc3)c3ccccc3)CC2)cc1; test: TP_TRANSPORTER: uptake in Oatp2-expressing HeLa cells; format: functional, cell-based

For `CC(C)(C)NC(=O)[C@@H]1C[C@@H]2CCCC[C@@H]2CN1C[C@@H](O)[C@H](Cc1ccccc1)NC(=O)[C@H](CC(N)=O)NC(=O)c1ccc2ccccc2n1`, the Activity [1] was 105%.

For `CC(C)(C)NC(=O)[C@@H]1CN(Cc2cccnc2)CCN1C[C@@H](O)C[C@@H](Cc1ccccc1)C(=O)N[C@H]1c2ccccc2C[C@H]1O.O`, the Activity [2] was 70%.

`Cc1c(O)cccc1C(=O)N[C@@H](CSc1ccccc1)[C@H](O)CN1C[C@H]2CCCC[C@H]2C[C@H]1C(=O)NC(C)(C)C` was tested, and the Activity [3] was 81%.

In the case of `COc1ccc(CCN(C)CCCC(C#N)(c2ccc(OC)c(OC)c2)C(C)C)cc1OC` (stereo unspecified), the inhibition at 100 µM [4] is reported as 100%.

`CC[C@H]1OC(=O)[C@H](C)[C@@H](O[C@H]2C[C@@](C)(OC)[C@@H](O)[C@H](C)O2)[C@H](C)[C@@H](O[C@@H]2O[C@H](C)C[C@H](N(C)C)[C@H]2O)[C@](C)(O)C[C@@H](C)C(=O)[C@H](C)[C@@H](O)[C@]1(C)O` [ERYTHROMYCIN] showed an Activity [5] of 66%.

In the case of `CC(C)(C(=O)O)c1ccc(C(O)CCCN2CCC(C(O)(c3ccccc3)c3ccccc3)CC2)cc1` (stereo unspecified) [FEXOFENADINE], the Activity [6] is reported as “substrate [+]”, the Activity [7] is reported as “substrate [+]” and the Activity [8] is reported as “substrate [+]”. For the same molecule, the Activity [9] was “substrate [+]”, the Activity [10] was “substrate [+]” and the Activity [11] was “substrate [+]”.

Molecule `CC(=O)N1CCN(c2ccc(OCC3COC(Cn4ccnc4)(c4ccc(Cl)cc4Cl)O3)cc2)CC1` (stereo unspecified) [KETOCONAZOLE] has an Activity [12] of 107%.

Molecule `CC[C@H](C)C(=O)O[C@H]1C[C@@H](C)C=C2C=C[C@H](C)[C@H](CC[C@@H]3C[C@@H](O)CC(=O)O3)[C@H]21` [LOVASTATIN] has an inhibition at 100 µM [13] of 95%.

`C=C[C@H]1C[N@@]2CC[C@H]1C[C@@H]2[C@@H](O)c1ccnc2ccc(OC)cc12` [QUINIDINE] was tested, and the inhibition at 100 µM [14] was 91%.

`C/C=C/C[C@@H](C)C(=O)[C@H]1C(=O)N[C@@H](C(C)C)C(=O)N(C)CC(=O)N(C)[C@@H](CC(C)C)C(=O)N[C@@H](C(C)C)C(=O)N(C)[C@@H](CC(C)C)C(=O)N[C@@H](C)C(=O)N[C@H](C)C(=O)N(C)[C@@H](CC(C)C)C(=O)N(C)[C@@H](CC(C)C)C(=O)N(C)[C@@H](C(C)C)C(=O)N1C` [VALSPODAR] was tested, and the inhibition at 100 µM [15] was 85%.

B1: Solute carrier organic anion transporter family member 1A4 (Rattus norvegicus) (protein)
chain: MGKSEKRVATHGVRCFAKIKMFLLALTCAYVSKSLSGTYMNSMLTQIERQFGIPTSIVGLINGSFEIGNLLLIIFVSYFGTKLHRPIMIGVGCAVMGLGCFLISLPHFLMGQYEYETILPTSNVSSNSFFCVENRSQTLNPTQDPSECVKEMKSLMWIYVLVGNIIRGIGETPIMPLGISYIEDFAKSENSPLYIGILETGMTIGPLIGLLLASSCANIYVDIESVNTDDLTITPTDTRWVGAWWIGFLVCAGVNILTSFPFFFFPKTLPKEGLQENVDGTENAKEKKHRKKAKEEKRGITKDFFVFMKSLSCNPIYMLFILISVLQFNAFINSFTFMPKYLEQQYGKSTAEVVFLMGLYMLPPICLGYLIGGLIMKKFKVTVKKAAHLAFWLCLSEYLLSFLSYVMTCDNFPVAGLTTSYEGVQHQLYVENKVLADCNTRCNCSTNTWDPVCGDNGLAYMSACLAGCEKSVGTGTNMVFQNCSCIQSSGNSSAVLGLCNKGPDCANKLQYFLIIAIFGCFIYSLAGIPGYMVLLRCIKSEEKSLGVGLHAFCIRILAGIPAPIYFGALIDRTCLHWGTLKCGEPGACRMYDINSFRRLYLGLPAALRGASFVPAFFILRLTRTFQFPGDIESSKTDHAEMKLTLKESECTEVLRSKVTED
B1 gave a Km [16] of 6 µM.
